# Reference: patent publication US11266642B2, “Small molecule inhibitors of HLA-DR3 binding for treating autoimmune thyroiditis” (ICAHN SCHOOL OF MEDICINE AT MOUNT SINAI, priority 2015, dated 2022)
# Legend:
# [1] = system: T-cell proliferative responses to hTg; test: In vivo IP administration in hTg-immunized NOD-DR3 mice (EAT), T-cell proliferation CFSE assay; design: species or system mouse; conditions: IP 125 μg on days -2, -1, 5, 6; sacrifice day 21; vehicle 2.3 ± 0.5; p=0.0432
# Excerpt: Mice transgenic for DRB1*0301 were originally generated by G. J Hämmerling and co-workers as previously described [Strauss et al. Immunogenetics 40, 104-108 (1994)]. Briefly, the DR3 (DRA1*0101/DRB1*0301) transgenes were inserted into (C57BL/6×DBA/2) F1 embryos and the progeny were back-crossed to B10.Q mice. The DR3 mice were crossed with I-Aβ knockouts (C57BL/6×129) to obtain mice lacking murine MHC class II and expressing human DR3. The transgenic mouse line was maintained by intercrossing. The background non-MHC genes in the DR3 transgenic line was 50% C57BL/10 genes and 50% contribution from CBA, C57BL/6, and 129 genes. These mice were then back-crossed into NOD background to produce the NOD-DR3 mice [Flynn et al. J Autoimmun, 17, 7-15 (2001)]. The transgene was confirmed to be HLA-DRβ1-Arg74 positive. […]
# Seven female NOD-DR3 mice (6-10 weeks old) were injected IP with […] Compound Ia on day (−2) and day (−1), followed by SQ immunization of human thyroglobulin (hTg) mixed with CFA on day 0. […] The stimulation index was calculated by using the formula described above: Stimulation index=[% proliferating lymphocytes (hTg, peptide or mitogen-treated)]/[% proliferating lymphocytes (medium-treated)].
# [2] = system: T-cells of hTg immunized mice; test: CFSE T-cell proliferation of splenocytes from hTg immunized NOD-DR3 mice, compound added ex vivo; assay type: cell-based, mouse; conditions: final concentration 0.001 mM
# Method: Female NOD-DR3 mice, 4-6 weeks old, were injected subcutaneously with human thyroglobulin (hTg) (Cell Sciences, Canton, Mass.) in complete Freund adjuvant (CFA) (Sigma) to induce EAT. Mice were immunized with hTg on day 0 and boosted on day 7; mice were sacrificed on day 21. For some mice, PC61 (anti-CD25) antibody (ATCC) at 7.5 mg/mL was injected i.p. on day (−4) and day 3 to deplete T regulatory (CD25+) cells and augment the autoimmune response to hTg.
# Spleen and draining lymph nodes were collected from mice upon sacrifice. The spleens and draining lymph nodes were harvested in complete RPMI (Corning) supplemented with 10% FBS (Sigma-Aldrich,) and 1 mM sodium pyruvate (Sigma-Aldrich). They were cut and pressed in circular motion using a plunger from a 10 mL syringe. The suspension was filtered through a 100 μm cell strainer twice and centrifuged at 200×g for 10 minutes. The supernatant was discarded. […] The pellet was resuspended in RPMI and the cells were counted and plated. […]
# The CFSE-labeled cells were plated at 2×10^5 cells per well in 100 μL of medium (RPMI/10% FBS). […] The results were analyzed using Flowjo (Tree Star, Ashland, Oreg.). The stimulation index was calculated by using the following formula: Stimulation index=[% proliferating lymphocytes (hTg, peptide or mitogen-treated)]/[% proliferating lymphocytes (medium-treated)]. […]
smiles,measurement,setting,value
"COc1ccc2cc1Oc1ccc(cc1)C[C@H]1c3c(cc4c(c3Oc3cc5c(cc3OC)CCN(C)[C@@H]5C2)OCO4)CCN1C [Compound Ia, cepharanthine]","Stimulation index, T-cell stimulation in response to hTg",[1],1.3 ± 0.2
same,activation of T-cells of hTg immunized mice by Tg.2098,"[2]; Tg.2098 20 μg/ml, p=0.0079",significantly blocked
same,activation of T-cells of hTg immunized mice by hTg,"[2]; hTg 40 μg/mL, p=0.0005",significantly blocked
